Test results reported in patent EP0329905A1, “Use of quinolizine and quinolizinone derivatives in the manufacture of medicaments for increasing gastric motility” (MERRELL DOW PHARMACEUTICALS INC., priority 1988, dated 1989).
Counter-ions that a name gives are not always drawn.

Tested on: Von Bezold-Jarisch Reflex induced by 5-HT
Assay: Von Bezold-Jarisch Reflex induced by 5-HT injected intravenously into the rat
Assay type: in vivo
Text: The activity of these compounds against 5-HT can be assessed in vivo by measurement of the effect of the compound on the Von Bezold-Jarisch Reflex induced by 5-HT injected intravenously into the rat (see Paintal A.S., Physiol. Rev. 53, 159-227, 1973; J.R. Fozard, Naunyn-Schmiedeberg's Arch. Pharmacol., 326, 1984, 36-44). The transient cardiac slowing arises from an increased afferent vagus activity arising from stimulation by 5-HT of sensory afferent fibers in and around the heart.

[1] = doses of 0.01-0.1 mg/kg given intravenously
[2] = doses of 0.25-1 mg/kg given orally

Row | SMILES | suppression of the Von Bezold-Jarisch Reflex induced by 5-HT [1] | suppression of the Von Bezold-Jarisch Reflex induced by 5-HT [2]
1 | Cc1cc(C)cc(C(=O)OC2CC3CC4CC(C2)N3CC4=O)c1 (stereo not drawn) [endo-8-(3,5-dimethylbenzoyloxy)hexahydro-2,6-methano-2H-quinolizin-3(4H)-one hydrochloride] | suppressed the response dose-dependently | suppressed the response dose-dependently
2 | O=C(OC1CC2CC3CC(C1)N2CC3=O)c1c[nH]c2ccccc12 (stereo not drawn) [endo-hexahydro-8-(3-indolylcarbonyloxy)-2,6-methano-2H-quinolizin-3(4H)one hydrochloride] | suppressed the response dose-dependently | suppressed the response dose-dependently
